According to US6680342B2, “Methods and compositions for inhibiting the proliferation of prostate cancer cells” (priority 2001, dated 2004):

Legend:
[1] = system: PSA; assay: Northern blot of PSA mRNA, LNCaP cells; format: cell-based, human; settings: in the presence of androgen, 24 hrs
Method: (§1) The films were autoradiographed at −70° C. overnight.

[2] = system: PSA; assay: PSA protein in spent media, immunometric assay, LAPC-4 cells; format: cell-based, human; settings: LAPC-4, 5 days, with or without Mib, normalized
[3] = system: hK2; assay: hK2 protein in spent media, immunometric assay, LAPC-4 cells; format: cell-based, human; settings: LAPC-4, 5 days, with or without Mib, normalized
[4] = system: NKX3.1; assay: Northern blot of NKX3.1 mRNA, LNCaP cells; format: cell-based, human; settings: in the presence of androgen, 24 hrs
Method: as §1

[5] = system: male and female rats; settings: approximately 40 to 1900 mg/kg/day; cited from earlier work
[6] = system: heat shock protein70 (Hsp70); assay: Western blot of heat shock protein70, LNCaP cells; format: cell-based, human
Method: (§3) Both cell lines were propagated in 24-well, 60 or 100 mm culture dishes at the desired density in RPMI 1640 (Mediatech, Herndon, Va.) supplemented with 5% fetal calf serum (FCS) (Biofluids, Rockville, Md.) at 37° C. and 5% CO2 until reaching 50-70% confluence.
(§4) LNCaP or LAPC-4 cells were plated in 10 cm dishes at 9×10^5 cells per dish in RPMI 1640 and 5% FCS. […] Cells were harvested at designated times, and the whole cell lysate was prepared according to manufacturer's instructions (Santa Cruz, Santa Cruz, Calif.). […] Protein levels were measured with a BioRad DC protein assay (BioRad, Hercules, Calif.). Protein samples (20 μg) were loaded into precast 4-12% NuPage gels (Novex, San Diego, Calif.), run with MOPS buffer, and transferred onto a nitrocellulose membrane (BioRad) according to the manufacturer's instructions. A Ponceau S staining was performed for total protein staining and visualized with a digital camera. The membranes were blocked overnight at 4° C. in TBST (20 mM Tris-HCl (pH 8.0), 137 mM NaCl, and 0.1% Tween 20) and 5% dry milk. The membranes were washed 3 times for ten min each with TBST. Primary antibody for the androgen receptor (1:2,000 dilution) (Pharmingen, San Diego, Calif.), Sp1 (1:2,000 dilution) (Santa Cruz) or heat shock protein70 (Hsp70) (1:1,000 diultion) (StressGene Biotechnologies, Victoria, B.C.) was incubated at room temperature for 1 hr. […]

[7] = system: hK2; assay: hK2 protein in spent media, immunometric assay, LNCaP cells; format: cell-based, human; settings: 5 days, with or without Mib, normalized by MTS
Method: (§2) LNCaP cells were seeded at 2×10^4 cells per well in 24 well plates. […] After a 5 day incubation, the spent media were harvested, and the levels of PSA and hK2 quantified by an immunometric assay as described previously (Hsieh et al., 1997, Cancer Res., 57:2651-6). MTS assays were performed (Promega, Madison, Wis.) as per the manufacturer's instructions. The protein levels of PSA and hK2 were normalized by cell density measurements with the MTS assay.

[8] = system: ODC; assay: Northern blot of ODC mRNA, LNCaP cells; format: cell-based, human; settings: in the presence of androgen, 24 hrs
Method: as §1

[9] = system: PSA; assay: PSA protein in spent media, immunometric assay, LNCaP cells; format: cell-based, human; settings: 5 days, with or without Mib, normalized by MTS
Method: as §2

[10] = system: Sp1; assay: Western blot of Sp1, LNCaP cells; format: cell-based, human
Method: as §3, §4

## O=c1c(O)c(-c2ccc(O)c(O)c2)oc2cc(O)cc(O)c12 [quercetin, Quercetin]
[1]
  PSA mRNA levels: greatly reduced
[2]
  PSA protein levels: inhibits both PSA and hK2 protein levels in a dose-dependent manner
[3]
  hK2 protein levels: inhibits both PSA and hK2 protein levels in a dose-dependent manner
[4]
  NKX3.1 mRNA levels: greatly reduced
[5]
  effects on survival: no treatment related effects on survival
[6]
  Hsp70 protein level: not affected
[7]
  hK2 protein levels: inhibits both PSA and hK2 protein levels in a dose-dependent manner
[8]
  ODC mRNA levels: greatly reduced
[9]
  PSA protein levels: inhibits both PSA and hK2 protein levels in a dose-dependent manner
[10]
  Sp1 protein level: not affected
